Experimental data as given in patent EP4778933A1 (Chengdu Hyperway Pharmaceuticals Co., Ltd., priority 2023, dated 2025).
Like-named read-outs stand apart in the source and are kept apart here.

Experiments:
[1] = system: KRAS G12V-mediated ERK phosphorylation; assay: Inhibition of KRAS G12V-mediated ERK phosphorylation in SW480 cells; type: cell-based; details: 3 h incubation, read-out: Inhibitory activity on ERK phosphorylation (IC50) SW480-G12V
Description: (§1) Day 1: AGS cells, SW480 cells, NCI H358 cells, HCT116 cells, and KP2 cells were seeded into 384-well cell culture plates and cultured overnight in a 37°C, 5% CO2 incubator.
(§2) Day 2: The compounds were added to the plates using Echo550 and incubated for 3 h in a 37°C, 5% CO2 incubator. Then, cells fixed with paraformaldehyde, permeated with methanol and blocked with a blocking solution were added. Finally, a mixed solution of primary antibodies (rabbit anti pERK, mouse anti GAPDH) was added, and the mixture was incubated overnight at 4°C.
(§3) Day 3: The mixed solution of primary antibodies was discarded, and a mixed solution of secondary antibodies (goat anti rabbit 800 CW, goat anti mouse 680 RD) was added. The resulting mixture was incubated at room temperature in the dark. Finally, the cell culture plate was washed with PBST, and then inverted for 1 minute of centrifugation. The fluorescence signal values were read with Odyssey CLx.
(§4) ERK phosphorylation was calculated according to the following formula: [formula] • Negative control: DMSO • Positive control: 10 µM Reference • IC50 value was fitted and calculated by XLFit 5.0 using the parametric formula. • Y = Bottom+(Top-Bottom)/(1+10^((LogIC50-X)*HillSlope)) • X: log value of compound concentration. • Y: average value of relative expression of p-ERK between replicate wells.

[2] = system: KRAS G12C-mediated ERK phosphorylation; assay: Inhibition of KRAS G12C-mediated ERK phosphorylation in NCI H358 cells; type: cell-based; details: Homo sapiens, 3 h incubation, read-out: Inhibitory activity on ERK phosphorylation (IC50) NCI H358-G12C
Description: as §1, §2, §3, §4

[3] = system: KRAS G13D-mediated ERK phosphorylation; assay: Inhibition of KRAS G13D-mediated ERK phosphorylation in HCT116 cells; type: cell-based; details: Homo sapiens, HCT-116, 3 h incubation, read-out: Inhibitory activity on ERK phosphorylation (IC50) HCT116-G13D
Description: as §1, §2, §3, §4

[4] = system: KRAS G12R-mediated ERK phosphorylation; assay: Inhibition of KRAS G12R-mediated ERK phosphorylation in KP2 cells; type: cell-based; details: 3 h incubation, read-out: Inhibitory activity on ERK phosphorylation (IC50) KP2-G12R
Description: as §1, §2, §3, §4

[5] = system: KRAS G12D-mediated ERK phosphorylation; assay: Inhibition of KRAS G12D-mediated ERK phosphorylation in AGS cells (in-cell pERK/GAPDH immunofluorescence); type: cell-based; details: AGS cells, 3 h incubation, read-out: Inhibitory activity on ERK phosphorylation (IC50) AGS-G12D
Procedure, shortened: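 AGS, SW480, NCI H358 and KP2 cells were seeded overnight, then treated with compounds for 3 h at 37°C. After fixation, permeabilization and blocking, pERK and GAPDH were immunostained and read by two-colour infrared fluorescence. The pERK/GAPDH ratio was normalized to DMSO and 10 µM reference controls, and IC50 was fitted with a four-parameter logistic model.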

[6] = In vivo pharmacokinetic test in mice; details: female BALB/c mice, oral, single dose 30 mg/kg, plasma
Description: (§5) Each test compound was administered orally once to female BALB/c mice for pharmacokinetic study. The test compounds were prepared on the day of administration. The oral administration solvent: 50 mM sodium citrate (pH 5.0) + 10% captisol. The oral administration was conducted in a dose of 30 mg/kg. The animals were fasted for 10-14 h before oral administration, and the feeding was resumed 4 h after administration. Pharmacokinetic samples were collected through the orbit. The collection time points were: 15 min, 30 min, 1 h, 2 h, 4 h, 6 h, 8 h and 24 h after administration. Three whole blood samples were collected at each time point, with a collection volume of about 0.2 mL, and anticoagulated with sodium heparin. After blood samples were collected, they were immediately placed on ice and centrifuged within 1 h to isolate plasma (centrifugation conditions: 8000 rpm, 1 min, 2-8°C). The collected plasma was stored in a -20°C refrigerator before analysis. The concentrations of compounds in the plasma samples were determined using an LC-MS/MS analysis method.

[7] = In vivo pharmacokinetic test in rats; set-up: species or system SD Rats; details: Sprague-Dawley (SD), rat; male rats, oral, single dose 30 mg/kg, plasma
Description: as §5, with “once to male […] rats” for “once to female BALB/c mice”, “male BALB/c rats for pharmacokinetic” for “female BALB/c mice for pharmacokinetic”, “administration. The intravenous administration solvent: 5% DMSO + 10% solutol + 85% saline; and the oral administration” for “administration. The oral administration”, “points were: 5 min (intravenous administration), 15 min,” for “points were: 15 min,”, “analysis method. Table 4: Pharmacokinetic test results of some compounds in SD Rats” for “analysis method.”

[8] = system: human ovarian cancer RKN mouse xenograft tumors; assay: In vivo drug efficacy, RKN subcutaneous xenograft tumor model; set-up: species or system Balb/c nude mice; details: 50 mg/kg, PO
Description: A subcutaneous xenograft tumor model of human ovarian cancer RKN (derived from uterine leiomyosarcoma) cells was established in Balb/c nude mice. RKN tumor cells resuspended in Ham's F12 medium were inoculated subcutaneously on the right side of the experimental animals at 5×10^6 + gel/0.1 mL. When the tumor grew to about 150-200 mm^3, 20 animals having relatively uniform tumor volumes were selected for group administration, with a total of 4 groups, 5 animals in each group. On the day of the experiment, the animals were given the corresponding drugs according to the groups. The first group G1 was set as a solvent group, and 50 mM citrate buffer (pH 5.0) + 10% Captisol was given by gavage alone. The second group G2 was given a 50 mM citrate buffer (pH 5.0) + 10% Captisol of compound 21. The third group G3 was given a 50 mM citrate buffer (pH 5.0) + 10% Captisol of compound 26. The fourth group G4 was given a 50mM citrate buffer (pH 5.0) + 10% Captisol of compound 31. Table 7: Study on effect of test substances on animal tumor size in the human ovarian cancer RKN mouse xenograft tumor model
During the experiment, the body weight and tumor size of the animals were measured twice a week, and the clinical symptoms of the animals were observed and recorded every day. Each drug administration was based on the most recent weighing of the animals.
The tumor was measured with a digital vernier caliper to measure the length (a) and width (b). The tumor volume (TV) was calculated using the following formula: TV = a × b^2 /2. [formula]

GP2D (KRASG12D) = assay: 3D cell proliferation inhibition test (CellTiter-Glo 3D, 7 days), GP2D; type: cell-based; details: 168 h, read-out: Inhibitory activity on cell proliferation (IC50) GP2D (KRASG12D)
Description: (§6) The diluted compounds to be tested were added to 384-well low-adhesion KRAS mutant types (such as GP2D, NCI H358, LoVo, RKN and KP2) of cell culture plates by using a nanoliter pipetting system (LABCYTE, P-0200). Then, the cells were plated and incubated in a 37°C, 5% CO2 incubator for 7 days. Afterward, CellTiter-Glo® 3D reagent was added, and the luminescent values were read by an Envision multifunctional microplate reader (the luminescent signal is proportional to the amount of ATP in the system, and the ATP content directly represents the number of viable cells in the system). Finally, the IC50 values (half-maximal inhibitory concentration) of the compounds were obtained by the XLFIT software using the nonlinear fitting formula.
(§7) • a) The diluted compounds to be tested were added to 384-well low-adhesion KRAS mutant types of cell culture plates by using a nanoliter pipetting system. • b) Cells were seeded into the 384-well plates in a) and then centrifuged at 1000 rpm for 1 min at room temperature, with a final DMSO concentration of compound being 0.5%. The plates were then incubated in a 5% CO2 constant-temperature incubator at 37°C for 7 days. • c) CellTiter-Glo® 3D was added to the 384-well cell culture plates in b), shaken in the dark, and incubated at room temperature. • d) The luminescence values were read by using an Envision multifunctional microplate reader.
(§8) The IC50 (half-maximal inhibitory concentration) values of the compounds were obtained by using XLFIT software according to the following nonlinear fitting formula: Y = Bottom + (Top−Bottom)/(1+10^(∧)((LogIC50−X)×HillSlope)) [formula] • X: log value of compound concentration. • Y: inhibition rate (%) [formula] • Negative control: DMSO. • Positive control: Medium only.

RKN (KRAS G12V) = assay: 3D cell proliferation inhibition test (CellTiter-Glo 3D, 7 days), RKN; type: cell-based; details: 168 h, read-out: Inhibitory activity on cell proliferation (IC50) RKN (KRAS G12V)
Description: as §6, §7, §8

IC50 [1]	IC50 [3]	IC50 [4]	IC50 [5]	AUC ([6]; 30 mg/kg)	Cmax ([6]; 30 mg/kg)	IC50 ([1]; Homo sapiens, SW480, 3 h)	AUC [7]	Cmax [7]	SMILES	IC50 [2]	inhibitory effects on human ovarian cancer RKN mouse xenograft tumors ([8]; BID, 28 days)	Tumor volume inhibition rate (TGI) ([8]; RKN xenograft, BID × 28, day 28)	IC50 (GP2D (KRASG12D))	IC50 (RKN (KRAS G12V))	IC50 ([5]; Homo sapiens, AGS, 3 h)	AUC ([6]; mouse, read-out: AUC)	Cmax ([6]; mouse, read-out: Cmax)
2.4 nM	63 nM	148 nM	3.3 nM	37427 ng·h/mL	5544 ng/mL	–	–	–	CC1(O)COCCN(c2nc(OCC34CCCN3C(c3cc(F)c(F)c(F)c3)CC4)nc3c(F)c(-c4ccc(F)c5sc(N)c(C#N)c45)c(Cl)cc23)C1 (single isomer, unassigned) [Example 12, 2-amino-4-[6-chloro-8-fluoro-4-(6-hydroxy-6-methyl-1,4-oxazepan-4-yl)-2-({[3-(3,4,5-trifluorophenyl)-2,3,5,6,7,7a-hexahydro-1H-pyrrolizin-7a-yl]methyl}oxy)quinazolin-7-yl]-7-fluorobenzo[b]thiophene-3-carbonitrile]	3.1 nM	–	–	–	–	–	–	–
–	45 nM	146 nM	4.7 nM	30872 ng·h/mL	5218 ng/mL	7.8 nM	5290 ng·h/mL	866 ng/mL	CC1(O)COCCN(c2nc(OCC34CCCN3C(c3cc(F)c(F)c(F)c3)CC4)nc3c(F)c(-c4cccc5sc(N)c(C#N)c45)c(Cl)cc23)C1 (single isomer, unassigned) [Example 21, 2-amino-4-[6-chloro-8-fluoro-4-(6-hydroxy-6-methyl-1,4-oxazepan-4-yl)-2-({[3-(3,4,5-trifluorophenyl)-2,3,5,6,7,7a-hexahydro-1H-pyrrolizin-7a-yl]methyl}oxy)quinazolin-7-yl]benzo[b]thiophene-3-carbonitrile]	2.04 nM	significant inhibitory effects	109%	4.26 nM	7.23 nM	–	–	–

SMILES	IC50 [1]	IC50 [3]	IC50 [4]	IC50 [5]	AUC ([6]; 30 mg/kg)	Cmax ([6]; 30 mg/kg)	IC50 ([1]; Homo sapiens, SW480, 3 h)	AUC [7]	Cmax [7]	IC50 [2]	inhibitory effects on human ovarian cancer RKN mouse xenograft tumors ([8]; BID, 28 days)	Tumor volume inhibition rate (TGI) ([8]; RKN xenograft, BID × 28, day 28)	IC50 (GP2D (KRASG12D))	IC50 (RKN (KRAS G12V))	IC50 ([5]; Homo sapiens, AGS, 3 h)	AUC ([6]; mouse, read-out: AUC)	Cmax ([6]; mouse, read-out: Cmax)
CC1(O)COCCN(c2nc(OCC34CCCN3C(c3cc(F)c(F)c(F)c3)CC4)nc3c(F)c(-c4cccc5sc(N)c(C#N)c45)c(Br)cc23)C1 (centres unmarked) [Example 23, 2-amino-4-[6-bromo-8-fluoro-4-(6-hydroxy-6-methyl-1,4-oxazepan-4-yl)-2-({[3-(3,4,5-trifluoropheny 1)-2,3,5,6,7,7a-hexahydro-1H-pyrrolizin-7a-yl]methyl}oxy)quinazolin-7-yl]benzo[b]thiophene-3-carb onitrile]	–	94 nM	663 nM	–	–	–	–	–	–	4.9 nM	–	–	–	–	4.2 nM	9230 ng·h/mL	3620 ng/mL
